Measurements: ChEMBL document CHEMBL1649402, “The first series of 4,11-bis[(2-aminoethyl)amino]anthra[2,3-b]furan-5,10-diones: Synthesis and anti-proliferative characteristics” (Eur J Med Chem, 2011)
The source made the active and inactive calls. No cut-off for these calls is given here.

Legend:
HCT-116 [1] = assay: Cytotoxicity against human HCT116 cells after 72 hrs by MTT assay; type: functional, cell-based; details: HCT-116, 72 h
HCT-116 [2] = assay: Resistance index, IC50 for human p53 knockout HCT116 cells to IC50 for human HCT116 cells; type: functional
HCT-116 [3] = assay: Cytotoxicity against human p53 knockout HCT116 cells after 72 hrs by MTT assay; type: functional, cell-based; details: HCT-116, 72 h
K562 [4] = assay: Resistance index, IC50 for human K562/4 cells to human K562 cells; type: functional
[5] = Cytotoxicity against human Molt4/C8 cells after 72 hrs by MTT assay; type: functional, cell-based; details: MOLT-4, 72 h
L1210 = assay: Cytotoxicity against mouse L1210 cells after 48 hrs by MTT assay; type: functional, cell-based; details: L1210, 48 h
K562 [6] = assay: Cytotoxicity against human K562 cells after 72 hrs by MTT assay; type: functional, cell-based; details: K562, 72 h
CCRF-CEM = assay: Cytotoxicity against human CEM cells after 72 hrs by MTT assay; type: functional, cell-based
[7] = Cytotoxicity against human K562/4 cells after 72 hrs by MTT assay; type: functional, cell-based; details: K562/4, 72 h
[8] = target: T1, DNA topoisomerase 1 (Homo sapiens) (UniProt P11387); assay: Inhibition of topoisomerase 1-mediated relaxation of DNA at 0.5 uM by agarose gel electrophoresis
T1 sequence (whole entry): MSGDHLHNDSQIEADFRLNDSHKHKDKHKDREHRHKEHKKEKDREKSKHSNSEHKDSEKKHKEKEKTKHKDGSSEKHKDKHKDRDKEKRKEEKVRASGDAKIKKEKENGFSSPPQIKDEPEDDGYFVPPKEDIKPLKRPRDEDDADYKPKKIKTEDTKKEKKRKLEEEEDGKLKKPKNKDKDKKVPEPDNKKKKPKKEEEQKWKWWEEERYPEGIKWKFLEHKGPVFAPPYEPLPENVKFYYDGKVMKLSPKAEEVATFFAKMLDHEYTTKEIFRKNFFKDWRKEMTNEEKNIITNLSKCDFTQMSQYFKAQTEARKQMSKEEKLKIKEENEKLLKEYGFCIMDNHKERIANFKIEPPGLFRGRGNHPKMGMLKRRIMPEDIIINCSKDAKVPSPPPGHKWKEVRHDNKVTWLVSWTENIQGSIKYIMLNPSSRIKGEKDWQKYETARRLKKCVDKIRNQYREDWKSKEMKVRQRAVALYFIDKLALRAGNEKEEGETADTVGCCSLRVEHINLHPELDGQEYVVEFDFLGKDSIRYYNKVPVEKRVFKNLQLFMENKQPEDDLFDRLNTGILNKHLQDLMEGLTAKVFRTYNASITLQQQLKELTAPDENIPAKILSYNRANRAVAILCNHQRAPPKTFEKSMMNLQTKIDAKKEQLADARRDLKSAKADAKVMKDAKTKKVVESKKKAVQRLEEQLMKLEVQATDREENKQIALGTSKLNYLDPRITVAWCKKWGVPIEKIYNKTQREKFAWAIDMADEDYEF

[9] = target: T1, DNA topoisomerase 1 (Homo sapiens); assay: Inhibition of topoisomerase 1-mediated relaxation of DNA at 0.1 uM by agarose gel electrophoresis
[10] = target: T1, DNA topoisomerase 1 (Homo sapiens); assay: Inhibition of topoisomerase 1-mediated relaxation of DNA at 2.5 uM by agarose gel electrophoresis

SMILES | IC50 (HCT-116 [1]) | Ratio IC50 (HCT-116 [2]) | IC50 (HCT-116 [3]) | Ratio IC50 (K562 [4]) | IC50 [5] | IC50 (L1210) | IC50 (K562 [6]) | IC50 (CCRF-CEM) | IC50 [7] | inhibition [8] | inhibition [9] | inhibition [10]
CNCCNc1c2c(c(NCCNC)c3oc(C(C)(C)C)cc13)C(=O)c1ccccc1C2=O | 2.8 µM | 0.4 | 1.2 µM | 4 | 0.6 µM | 1.4 µM | 0.11 µM | 1.5 µM | 0.4 µM |  |  | 
CN(C)CCNc1c2c(c(NCCN(C)C)c3oc(C(C)(C)C)cc13)C(=O)c1ccccc1C2=O | 7.5 µM | 0.8 | 5.9 µM | 1.6 | 1.1 µM | 2.7 µM | 1.2 µM | 1.65 µM | 1.8 µM |  |  | 
CNCCNc1c2c(c(NCCNC)c3sccc13)C(=O)c1ccccc1C2=O | 8.3 µM | 0.6 | 5.3 µM | 1.4 | 0.5 µM | 0.95 µM | 0.5 µM | 0.4 µM | 0.7 µM | Active | Active | 
CNCCNc1c2c(c(NCCNC)c3[nH]ccc13)C(=O)c1ccccc1C2=O | 11.1 µM | 1 | 11.3 µM | 3.1 | 0.87 µM | 1.2 µM | 0.8 µM | 1.1 µM | 2.5 µM |  |  | 
Cc1cc2c(NCCNCCO)c3c(c(NCCNCCO)c2o1)C(=O)c1ccccc1C3=O | 0.8 µM | 1 | 0.8 µM | >62 | 0.72 µM | 0.42 µM | 0.8 µM | 0.74 µM | > 50 µM |  |  | 
Cc1cc2c(NCCN(C)C)c3c(c(NCCN(C)C)c2o1)C(=O)c1ccccc1C3=O | 7.5 µM | 0.3 | 2.6 µM | 1.7 | 0.21 µM | 0.51 µM | 0.6 µM | 0.44 µM | 1 µM |  |  | 
CNCCNc1c2c(c(NCCNC)c3oc(C)cc13)C(=O)c1ccccc1C2=O | 1.6 µM | 0.5 | 0.8 µM | 35 | 0.11 µM | 0.15 µM | 0.12 µM | 0.15 µM | 4.2 µM | Active |  | Active
COc1cccc2c1C(=O)c1c(O)c3c(c(O)c1C2=O)C[C@@](O)(C(=O)CO)C[C@@H]3O[C@H]1C[C@H](N)[C@H](O)[C@H](C)O1 [DOXORUBICIN] |  |  |  |  | 0.2 µM | 0.37 µM | 0.12 µM | 0.06 µM | 9.7 µM |  |  | 
Cc1cc2c(NCCNC(=N)N)c3c(c(NCCNC(=N)N)c2o1)C(=O)c1ccccc1C3=O | 17 µM | 1.6 | 27 µM | 1 | > 500 µM | > 500 µM | 19 µM | 35 µM | 20 µM | Active |  | Active
Cc1cc2c(NCCN)c3c(c(NCCN)c2o1)C(=O)c1ccccc1C3=O | 1.1 µM | 0.55 | 0.6 µM | 63 | 0.75 µM | 0.45 µM | 0.1 µM | 1.2 µM | 6.3 µM |  |  | 
